In patent publication US20090181888A1, “Skin Repair Accelerating Therapeutic Agent Containing Ghrelin and Derivatives Thereof or Substance Acting On GHS-R1a as Active Ingredient” (priority 2005, published 2009):
Square brackets hold non-standard residues; d marks the D form. Ends that are not written are not given here. * marks the point of attachment. Octanoyl = CCCCCCCC(=O)*

Legend:
Format in all cases: cell-based, Wistar rat
cultured fetal skin cell [1] = test: Cell proliferation acceleration (BrdU uptake, Proliferation ELISA) in cultured fetal skin cell; settings: ghrelin 0.05 to 500 pmol/mL (nM) or GHRP6 0.05 to 50 pmol/mL (nM); 24 hours; versus control medium; FIG. 4
Protocol: The fetal skin cells were collected from a Wistar rat on the 17th day of pregnancy, and a dispersion liquid thereof was obtained in the same manner as in Example 2. The dispersed cells with ghrelin (0.05 to 500 pmol/mL (nM)) or GHRP6 (0.05 to 50 pmol/mL (nM)) were suspended in a MCDB153HAA medium (F-Peptide Co., Ltd., Yamagata, Japan) containing 2% fetal bovine serum, penicillin (100 U/mL), streptomycin (100 μg/mL) and epidermal growth factor EGF (5 ng/mL), and sowed on a polyethyleneimine coated 96-hole multi-well plate in an amount of 3×10^4 cells/well. A medium without containing ghrelin or GHRP6 was used as a control. 5-bromo-2′-deoxyuridine (BrdU) (10 μM) was added thereto, which was then incubated for 24 hours. After the culture was over, uptake quantity of BrdU into the fetal skin cell was measured using Proliferation ELISA Kit (Roche Diagnostic GmbH. Manheim, Germany) to consider the skin cell growth activity.

[2] = test system: fetal skin cell having GHS-R1a; test: Intracellular calcium-increasing activity in cultured fetal skin cell (Fura-2 calcium imaging); settings: single skin cell of rat fetus
Protocol: A Wistar rat on the 17th day of pregnancy underwent laparotomy under anesthesia for fetus extraction. A small piece of skin was collected from the fetus, treated with collagenase in cold Hank's solution, digested with papain, and mechanically separated by pipetting. This gave a dispersion liquid of the fetal skin cells. A single cell was obtained from the dispersion liquid, ghrelin was added thereto, and calcium imaging was performed. For the calcium imaging, a calcium imaging device (IMACS, Hamamatsu Photonics) was used. That is, the ratio of the emission at a wavelength of 510 nm was measured when excitation was performed by 340 nm/380 nm light. Fura-2 was used as a calcium imaging agent. Ghrelin derived from a rat (SEQ ID NO: 3) was used (the same in the following Examples).
In FIG. 2, I, II and III are the points at which a photograph was taken, but the photographs are omitted from the present description. […] Ghrelin and desacylghrelin were added to different cells, respectively.

cultured fetal skin cell [3] = test: [3H]-thymidine uptake acceleration in cultured fetal skin cell; settings: ghrelin 0.5, 5 and 50 pmol/mL (nM); incubated 24 or 48 hours; versus control without ghrelin; FIG. 3
Protocol: The skin cells of a rat fetus were collected from a Wistar rat on the 17th day of pregnancy, and a dispersion liquid thereof was obtained in the same manner as in Example 2. The dispersed cells were suspended in a MCDB153HAA medium (F-Peptide Co., Ltd., Yamagata, Japan) containing 2% fetal bovine serum, penicillin (100 U/mL), streptomycin (100 μg/mL) and epidermal growth factor EGF (5 ng/mL), and sowed on a polyethyleneimine coated 48-hole multi-well plate in an amount of 5×10^5 cells/well. Ghrelin ([…] (nM))) and [^3H]-thymidine (2 μCi/mL) were added thereto, which was then incubated for 24 hours or 48 hours. A culture solution without containing ghrelin was prepared as a control. After the incubation was over, the cells were collected and radioactivity was measured.
The results are shown in FIG. 3 (black triangle: 50 pmol/mL, black square: 5 pmol/mL, black circle: 0.5 pmol/mL, white circle: control).

## H[dW]AW[dF]K-NH2 [GHRP6, reference compound]
Cultured fetal skin cell [1]
  uptake of BrdU into the fetal skin cell: significantly increased

## desacylghrelin [reference compound]
[2]; dotted-line curve of FIG. 2, concentration not given
  calcium response of a single fetal skin cell (FIG. 2 curve): responded

## GSS (n-octanoyl) FLSPEHQKAQQRKESKKPPAKLQPR (GSS(Octanoyl)FLSPEHQKAQQRKESKKPPAKLQPR; listed as Rattus norvegicus) [ghrelin, 28-residue peptide, serine 3 acylated with n-octanoyl, endogenous GHS-R1a ligand]
Cultured fetal skin cell [3]
  uptake of [3H]-thymidine into the cell: increased
Cultured fetal skin cell [1]
  uptake of BrdU into the fetal skin cell: significantly increased
[2]; ghrelin 1×10^−6 M, day 17 of pregnancy, Fura-2, 340 nm/380 nm ratio, FIG. 2
  intracellular calcium in a single fetal skin cell: increase of calcium was observed
